Test results published in ChEMBL document CHEMBL4177690, “(E)-3-(3,4,5-Trimethoxyphenyl)-1-(pyridin-4-yl)prop-2-en-1-one, a heterocyclic chalcone is a potent and selective CYP1A1 inhibitor and cancer chemopreventive agent” (Bioorg Med Chem Lett, 2017).
pIC50: −log10 of the molar value.

Columns and labels:
Cytochrome P450 1A1 [1] = target: T1, Cytochrome P450 1A1 (Homo sapiens, UniProt P04798); assay: Inhibition of human CYP1A1 expressed in yeast microsomal membranes using 7-ethoxyresorufin as substrate measured after 10 mins by fluorescence assay; assay type: cell membranes
T1 sequence (P04798 whole entry): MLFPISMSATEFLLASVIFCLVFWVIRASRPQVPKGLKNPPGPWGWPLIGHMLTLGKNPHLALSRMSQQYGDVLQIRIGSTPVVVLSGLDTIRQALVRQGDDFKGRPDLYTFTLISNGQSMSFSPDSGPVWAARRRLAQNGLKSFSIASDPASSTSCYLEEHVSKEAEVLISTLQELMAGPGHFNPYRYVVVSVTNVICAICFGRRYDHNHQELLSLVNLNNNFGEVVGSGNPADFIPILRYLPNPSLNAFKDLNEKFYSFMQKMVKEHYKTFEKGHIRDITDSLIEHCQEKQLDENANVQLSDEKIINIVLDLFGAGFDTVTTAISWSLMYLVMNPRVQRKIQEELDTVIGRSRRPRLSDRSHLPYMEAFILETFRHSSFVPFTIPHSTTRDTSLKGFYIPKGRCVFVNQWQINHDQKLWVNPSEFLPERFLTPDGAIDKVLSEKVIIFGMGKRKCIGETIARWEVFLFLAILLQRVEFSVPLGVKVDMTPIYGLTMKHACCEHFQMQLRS

Cytochrome P450 1B1 [2] = target: T2, Cytochrome P450 1B1 (Homo sapiens, UniProt Q16678); assay: Inhibition of human CYP1B1 expressed in yeast microsomal membranes using 7-ethoxyresorufin as substrate measured after 10 mins by fluorescence assay; assay type: cell membranes
T2 sequence (Q16678 whole entry): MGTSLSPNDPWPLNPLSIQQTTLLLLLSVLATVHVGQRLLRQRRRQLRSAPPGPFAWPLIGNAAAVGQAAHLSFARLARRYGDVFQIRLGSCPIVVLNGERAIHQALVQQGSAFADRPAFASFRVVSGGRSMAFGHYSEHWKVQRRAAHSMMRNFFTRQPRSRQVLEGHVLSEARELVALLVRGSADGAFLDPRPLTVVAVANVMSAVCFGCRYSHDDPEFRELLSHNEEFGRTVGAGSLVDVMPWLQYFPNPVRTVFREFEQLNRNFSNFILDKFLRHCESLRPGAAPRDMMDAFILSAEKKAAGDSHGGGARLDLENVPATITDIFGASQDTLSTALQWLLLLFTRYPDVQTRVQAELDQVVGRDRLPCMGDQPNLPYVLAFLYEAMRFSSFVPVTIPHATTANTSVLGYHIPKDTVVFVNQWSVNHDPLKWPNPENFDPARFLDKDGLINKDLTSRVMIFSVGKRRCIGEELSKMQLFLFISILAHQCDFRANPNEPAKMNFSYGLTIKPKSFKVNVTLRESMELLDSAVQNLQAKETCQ

Cytochrome P450 1B1 [3] = target: T2, Cytochrome P450 1B1; assay: Inhibition of recombinant human CYP1B1 expressed in HEK293 cells using 7-ethoxyresorufin as substrate pretreated for 30 mins followed by substrate addition measured for 60 mins by fluorescence assay; assay type: cell-based
Cytochrome P450 2D6 = Cytochrome P450 2D6 (Homo sapiens, UniProt P10635); assay: Inhibition of recombinant human CYP2D6 expressed in HEK293 cells using 7-ethoxy-methyloxy-3-cyanocoumarin as substrate pretreated for 30 mins followed by substrate addition measured for 60 mins by fluorescence assay; assay type: ADME, cell-based
Sequence of Cytochrome P450 2D6 (P10635 whole entry): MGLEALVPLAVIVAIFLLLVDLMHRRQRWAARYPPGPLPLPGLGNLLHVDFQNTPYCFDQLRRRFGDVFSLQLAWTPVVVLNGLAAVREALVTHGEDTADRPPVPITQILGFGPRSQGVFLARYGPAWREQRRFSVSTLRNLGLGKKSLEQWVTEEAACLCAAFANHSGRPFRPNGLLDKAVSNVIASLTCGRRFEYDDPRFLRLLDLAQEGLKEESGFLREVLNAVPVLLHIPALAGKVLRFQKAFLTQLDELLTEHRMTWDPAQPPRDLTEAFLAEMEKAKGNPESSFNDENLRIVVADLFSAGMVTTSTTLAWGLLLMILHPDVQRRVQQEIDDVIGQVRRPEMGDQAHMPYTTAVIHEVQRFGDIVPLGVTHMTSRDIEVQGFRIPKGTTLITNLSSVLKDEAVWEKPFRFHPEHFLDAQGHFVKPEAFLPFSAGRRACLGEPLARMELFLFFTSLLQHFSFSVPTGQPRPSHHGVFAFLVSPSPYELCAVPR

Cytochrome P450 1A1 [4] = target: T1, Cytochrome P450 1A1; assay: Time-dependent inhibition of human CYP1A1 expressed in yeast microsomal membranes using 7-ethoxyresorufin as substrate; assay type: cell membranes
Cytochrome P450 1A2 = target: T3, Cytochrome P450 1A2 (Homo sapiens, UniProt P05177); assay: Inhibition of human CYP1A2 expressed in yeast cells; assay type: ADME, cell-based
T3 sequence (P05177 whole entry): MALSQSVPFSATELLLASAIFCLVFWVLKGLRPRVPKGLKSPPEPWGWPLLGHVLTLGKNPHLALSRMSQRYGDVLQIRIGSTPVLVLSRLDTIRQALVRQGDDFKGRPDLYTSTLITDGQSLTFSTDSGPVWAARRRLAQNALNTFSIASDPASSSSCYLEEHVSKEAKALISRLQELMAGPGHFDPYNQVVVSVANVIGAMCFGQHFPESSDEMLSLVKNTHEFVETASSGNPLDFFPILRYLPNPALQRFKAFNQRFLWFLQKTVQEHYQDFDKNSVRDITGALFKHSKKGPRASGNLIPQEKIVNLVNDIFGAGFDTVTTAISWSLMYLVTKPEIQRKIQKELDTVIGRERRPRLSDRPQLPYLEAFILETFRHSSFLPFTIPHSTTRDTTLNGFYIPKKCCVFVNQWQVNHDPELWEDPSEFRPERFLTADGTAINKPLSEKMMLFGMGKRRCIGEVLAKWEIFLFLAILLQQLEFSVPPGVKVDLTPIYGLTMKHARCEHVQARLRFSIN

Cytochrome P450 2C8 = target: T4, Cytochrome P450 2C8 (Homo sapiens, UniProt P10632); assay: Inhibition of human CYP2C8 expressed in yeast cells; assay type: ADME, cell-based
T4 sequence (P10632 whole entry): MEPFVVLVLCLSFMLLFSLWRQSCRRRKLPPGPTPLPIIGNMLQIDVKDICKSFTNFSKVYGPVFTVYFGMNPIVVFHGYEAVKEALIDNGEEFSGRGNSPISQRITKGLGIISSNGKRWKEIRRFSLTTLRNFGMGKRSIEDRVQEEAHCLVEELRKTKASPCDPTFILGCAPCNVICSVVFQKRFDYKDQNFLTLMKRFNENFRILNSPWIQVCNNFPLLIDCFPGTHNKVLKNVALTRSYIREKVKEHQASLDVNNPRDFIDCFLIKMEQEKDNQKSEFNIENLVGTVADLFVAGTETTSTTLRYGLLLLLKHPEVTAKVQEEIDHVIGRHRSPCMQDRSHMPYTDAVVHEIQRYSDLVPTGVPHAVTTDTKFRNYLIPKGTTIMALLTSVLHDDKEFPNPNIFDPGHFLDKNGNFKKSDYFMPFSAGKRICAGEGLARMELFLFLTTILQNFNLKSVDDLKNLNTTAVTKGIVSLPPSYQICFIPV

Cytochrome P450 2E1 = Cytochrome P450 2E1 (Homo sapiens, UniProt P05181); assay: Inhibition of human CYP2E1 expressed in yeast cells; assay type: ADME, cell-based
Sequence of Cytochrome P450 2E1 (P05181 whole entry): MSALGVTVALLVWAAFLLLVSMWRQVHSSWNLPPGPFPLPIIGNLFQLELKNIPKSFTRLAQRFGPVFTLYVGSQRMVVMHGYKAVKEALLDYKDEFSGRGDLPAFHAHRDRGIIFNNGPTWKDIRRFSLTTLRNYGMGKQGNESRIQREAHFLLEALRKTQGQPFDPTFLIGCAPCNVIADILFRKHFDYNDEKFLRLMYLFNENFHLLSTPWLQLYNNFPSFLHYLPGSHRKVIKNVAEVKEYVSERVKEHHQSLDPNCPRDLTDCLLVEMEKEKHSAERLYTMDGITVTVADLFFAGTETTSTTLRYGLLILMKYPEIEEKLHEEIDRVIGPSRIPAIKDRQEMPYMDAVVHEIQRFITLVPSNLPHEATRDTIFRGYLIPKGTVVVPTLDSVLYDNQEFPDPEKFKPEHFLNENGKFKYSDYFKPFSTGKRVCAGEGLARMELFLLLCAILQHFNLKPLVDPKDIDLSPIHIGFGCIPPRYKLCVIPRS

Homo sapiens = organism: Homo sapiens; assay: Selectivity ratio of IC50 for recombinant human CYP2D6 to IC50 for recombinant human CYP1A1

pIC50 (Cytochrome P450 1A1 [1]): 7.21
pIC50 (Cytochrome P450 1B1 [2]): 5.28
pIC50 (Cytochrome P450 1B1 [3]): 5.09
pIC50 (Cytochrome P450 2D6): < 5.00
TDI (Cytochrome P450 1A1 [4]): Not Active
pIC50 (Cytochrome P450 1A2): 5.74
pIC50 (Cytochrome P450 2C8): 5.05
pIC50 (Cytochrome P450 2E1): < 5.00
Ratio IC50 (Homo sapiens): > 100
SMILES: COc1cc(/C=C/C(=O)c2ccncc2)cc(OC)c1OC
